Assay results reported in patent US20240132489A1, “AROMATIC HETEROCYCLIC COMPOUND, PHARMACEUTICAL COMPOSITION, AND USE THEREOF” (GT APEIRON THERAPEUTICS LIMITED, priority 2020, published 2024).
Where a name gives a salt, the structure may show the parent alone.

How the values were obtained:
[1] = biological target: CDK12(aa686-1082)/cyclin K complex (Homo sapiens (Human), UniProt Q9NYV4); experiment: In vitro enzymatic inhibitory activity test, CDK12; type: biochemical; settings: Caliper mobility shift, 180 min at 27° C.
Chain of CDK12(aa686-1082)/cyclin K complex (Q9NYV4 686-1082, species assumed): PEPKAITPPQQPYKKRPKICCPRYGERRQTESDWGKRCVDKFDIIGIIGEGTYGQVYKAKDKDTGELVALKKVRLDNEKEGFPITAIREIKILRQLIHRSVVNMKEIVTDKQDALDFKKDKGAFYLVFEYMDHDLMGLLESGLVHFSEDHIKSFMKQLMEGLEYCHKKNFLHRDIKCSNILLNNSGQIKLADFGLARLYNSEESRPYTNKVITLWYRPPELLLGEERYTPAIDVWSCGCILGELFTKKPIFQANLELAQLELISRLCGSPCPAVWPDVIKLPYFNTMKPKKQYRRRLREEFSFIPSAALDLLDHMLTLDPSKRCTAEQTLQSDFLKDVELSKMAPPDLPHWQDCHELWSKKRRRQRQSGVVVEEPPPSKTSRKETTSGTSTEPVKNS
Chain of CDK12(aa686-1082)/cyclin K complex (O75909 whole entry partner, species assumed, the tested form may be a part): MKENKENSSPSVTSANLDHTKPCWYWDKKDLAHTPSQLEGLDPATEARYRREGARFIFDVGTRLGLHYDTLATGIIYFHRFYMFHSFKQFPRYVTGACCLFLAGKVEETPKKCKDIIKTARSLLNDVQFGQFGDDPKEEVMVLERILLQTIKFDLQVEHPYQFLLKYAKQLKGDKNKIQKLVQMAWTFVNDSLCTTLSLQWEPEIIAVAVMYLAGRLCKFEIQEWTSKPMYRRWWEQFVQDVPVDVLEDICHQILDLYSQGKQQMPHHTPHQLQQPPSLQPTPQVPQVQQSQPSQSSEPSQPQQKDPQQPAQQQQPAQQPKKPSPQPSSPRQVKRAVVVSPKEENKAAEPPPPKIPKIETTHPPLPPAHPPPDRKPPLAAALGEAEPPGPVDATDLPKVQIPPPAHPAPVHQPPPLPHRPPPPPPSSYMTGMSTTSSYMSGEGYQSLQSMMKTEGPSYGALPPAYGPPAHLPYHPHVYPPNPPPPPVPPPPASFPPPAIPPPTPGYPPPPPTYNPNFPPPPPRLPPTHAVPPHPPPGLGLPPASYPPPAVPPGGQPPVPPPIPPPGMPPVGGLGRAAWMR
Procedure: (§1) CDK7/CyclinH was diluted in a test buffer solution (20 mM MES PH6.75, 0.01% Tween20, 50 ug/mL BSA, 6 mM MgCl2) to obtain a corresponding enzyme solution with a 2.4× concentration. CDK2/CyclinE1 was diluted in a test buffer solution (20 mM MES PH6.75, 0.01% Tween20, 50 ug/mL BSA, 6 mM MgCl2) to obtain a corresponding enzyme solution with a 2.4× concentration. CDK9/CyclinT1 was diluted in a test buffer solution (20 mM MES PH6.75, 0.01% Tween20, 50 ug/mL BSA, 10 mM MgCl2) to obtain a corresponding enzyme solution with a 2.4× concentration. CDK12/CyclinK was diluted in a test buffer solution (80 mM MES PH6.5, 0.01% Tween20, 50 ug/mL BSA, 10 mM MgCl2) to obtain a corresponding enzyme solution with a 2.4× concentration. The compounds were dissolved in dimethyl sulfoxide (DMSO) at a concentration of 10 mM. […] 2 ul of a test compound solution was mixed with 5 ul of enzyme solution. After incubating for 10 min, 5 ul of the mixed solution of the polypeptide substrate and ATP was added. After incubating at 27° C. for 180 min, 4 uL of EDTA with a 120 mM concentration was added to each sample to stop the reaction. […] A CDK9/cyclin TI complex (8 nM) and a “5-FAM-CDK9tide” peptide substrate (2 μM, synthetic fluorophore labeled peptide having the following sequence: 5-FAM-GSRTPMY-NH2, where 5-FAM was as defined above, and NH2 represented C-terminal amide) were used for testing the CDK9 inhibition. […] A CDK2/cyclin E1 complex (0.5 nM) and the “5-FAM-CDK7tide” (2 μM) as defined above were used for testing the CDK2 inhibition.
(§2) Electrophoretic separation was performed on Caliper EZ Reader II by means of a fluorogenic substrate and a phosphorylated product to analyze the reaction mixture. Data were calculated by using GraphPad Prism version 6.0. IC50 values were adjusted by means of a nonlinear regression model using a dose-response curve.

[2] = biological target: CDK7/cyclin H/MAT1 complex (Homo sapiens (Human), UniProt P50613); experiment: In vitro enzymatic inhibitory activity test, CDK7; type: biochemical; settings: Caliper mobility shift, 180 min at 27° C.
Chain of CDK7/cyclin H/MAT1 complex (P50613 whole entry, species assumed): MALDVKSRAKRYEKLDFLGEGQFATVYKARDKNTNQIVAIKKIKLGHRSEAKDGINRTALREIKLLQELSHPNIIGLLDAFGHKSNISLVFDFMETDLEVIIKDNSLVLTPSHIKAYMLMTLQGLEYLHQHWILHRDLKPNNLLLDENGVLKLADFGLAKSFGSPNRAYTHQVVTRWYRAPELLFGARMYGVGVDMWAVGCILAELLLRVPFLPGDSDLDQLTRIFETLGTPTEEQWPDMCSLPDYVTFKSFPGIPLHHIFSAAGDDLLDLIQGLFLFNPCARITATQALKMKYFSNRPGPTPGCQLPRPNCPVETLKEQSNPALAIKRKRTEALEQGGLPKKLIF
Chain of CDK7/cyclin H/MAT1 complex (P51946 whole entry partner, species assumed): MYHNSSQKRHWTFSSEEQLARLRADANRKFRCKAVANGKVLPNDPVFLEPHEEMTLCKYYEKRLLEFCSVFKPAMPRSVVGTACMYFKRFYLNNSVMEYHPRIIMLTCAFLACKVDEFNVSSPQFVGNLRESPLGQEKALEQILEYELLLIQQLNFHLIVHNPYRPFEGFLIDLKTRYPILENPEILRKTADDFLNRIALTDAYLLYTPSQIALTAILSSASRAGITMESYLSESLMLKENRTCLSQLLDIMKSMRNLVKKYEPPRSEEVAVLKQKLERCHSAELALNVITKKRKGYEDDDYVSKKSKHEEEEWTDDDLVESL
Chain of CDK7/cyclin H/MAT1 complex (P51948 whole entry partner, species assumed): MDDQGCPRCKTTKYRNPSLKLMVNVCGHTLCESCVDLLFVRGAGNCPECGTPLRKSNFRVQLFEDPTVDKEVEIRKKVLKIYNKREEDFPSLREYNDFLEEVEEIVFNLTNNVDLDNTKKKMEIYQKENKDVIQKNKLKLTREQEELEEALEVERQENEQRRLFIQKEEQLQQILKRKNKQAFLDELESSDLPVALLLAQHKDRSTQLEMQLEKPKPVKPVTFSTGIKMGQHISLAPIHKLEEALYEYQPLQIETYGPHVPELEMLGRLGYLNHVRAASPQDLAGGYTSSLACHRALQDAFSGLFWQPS
Procedure: as §1, §2

HCC70 cells = experiment: Cell bioactivity detection (CyQuant), HCC70; type: cell-based; settings: human breast cancer cells HCC70, 72 hours
Procedure: (§3) Trypsinization was performed on A2780 and HCC70 cells. Cell suspensions were respectively transferred to 15 mL of centrifuge tubes and centrifuged at 800 rpm for 5 min. The supernatant was discarded. Resuspension in a fresh culture medium (RPMI 1640+10% FBS) was performed. After counting, the cells were inoculated at 2000/well in a 384-well plate (50 φL of 1640+10% FBS culture medium was added to the 2nd line and the 23rd line of the 384-well plate, and 50 μL of DPBS was added to surrounding wells). Incubation in an incubator (37° C., 5% CO2) was performed overnight.
(§4) The compound was added to the well plate the next day. The compound had the highest concentration of 10 μM and was diluted at the ratio of 1:4 to form 9 concentrations. The positive compound Paclitaxel had the highest concentration of 1 μM and was diluted at the ratio of 1:3 to form 9 concentrations. The DMSO content of each well was unified to 0.2%. A cell plate was centrifuged at 800 rpm for 30 seconds. Incubation for 72 hours in an incubator (37° C., 5% CO2) was performed. On the fourth day, a Cyquant reagent (3×) was prepared according to kit instructions. Each 384-well plate was prepared in the following proportions: DPBS: 11.568 mL, CyQuant® Direct nucleic acid stain: 72 μL, CyQuant® Direct background suppressor: 360 ILL. The plates were uniformly mixed and placed for standby application at room temperature. The cell plate was taken out and placed at room temperature to be balanced for 30 min. 25 μL of Cyquant reagent (3×) was dispensed to the cells in each well of the 384-well plates by using a Multi-drop dispenser. Incubation at 37° C. for 60 or more minutes was performed. The plates were read by Acumen (Acumen was configured to have a 488 nm excitation wavelength). IC50 results were analyzed by XLFIT5 of the IDBS company.

CDK2/cyclin E1 complex = CDK2/cyclin E1 complex (Homo sapiens (Human), UniProt P24941); experiment: In vitro enzymatic inhibitory activity test, CDK2; type: biochemical; settings: Caliper mobility shift, 180 min at 27° C.
Procedure: CDK7/CyclinH was diluted in a test buffer solution (20 mM MES PH6.75, 0.01% Tween20, 50 ug/mL BSA, 6 mM MgCl2) to obtain a corresponding enzyme solution with a 2.4× concentration. CDK2/CyclinE1 was diluted in a test buffer solution (20 mM MES PH6.75, 0.01% Tween20, 50 ug/mL BSA, 6 mM MgCl2) to obtain a corresponding enzyme solution with a 2.4× concentration. CDK9/CyclinT1 was diluted in a test buffer solution (20 mM MES PH6.75, 0.01% Tween20, 50 ug/mL BSA, 10 mM MgCl2) to obtain a corresponding enzyme solution with a 2.4× concentration. CDK12/CyclinK was diluted in a test buffer solution (80 mM MES PH6.5, 0.01% Tween20, 50 ug/mL BSA, 10 mM MgCl2) to obtain a corresponding enzyme solution with a 2.4× concentration. […] 2 ul of a test compound solution was mixed with 5 ul of enzyme solution. After incubating for 10 min, 5 ul of the mixed solution of the polypeptide substrate and ATP was added. After incubating at 27° C. for 180 min, 4 uL of EDTA with a 120 mM concentration was added to each sample to stop the reaction. […] A CDK9/cyclin TI complex (8 nM) and a “5-FAM-CDK9tide” peptide substrate (2 μM, synthetic fluorophore labeled peptide having the following sequence: 5-FAM-GSRTPMY-NH2, where 5-FAM was as defined above, and NH2 represented C-terminal amide) were used for testing the CDK9 inhibition. […] A CDK2/cyclin E1 complex (0.5 nM) and the “5-FAM-CDK7tide” (2 μM) as defined above were used for testing the CDK2 inhibition.
as §2

CDK9/CyclinT1 = CDK9/CyclinT1 (Homo sapiens (Human), UniProt P50750); experiment: In vitro enzymatic inhibitory activity test, CDK9; type: biochemical; settings: Caliper mobility shift, 180 min at 27° C.
Chain of CDK9/CyclinT1 (P50750 whole entry, species assumed): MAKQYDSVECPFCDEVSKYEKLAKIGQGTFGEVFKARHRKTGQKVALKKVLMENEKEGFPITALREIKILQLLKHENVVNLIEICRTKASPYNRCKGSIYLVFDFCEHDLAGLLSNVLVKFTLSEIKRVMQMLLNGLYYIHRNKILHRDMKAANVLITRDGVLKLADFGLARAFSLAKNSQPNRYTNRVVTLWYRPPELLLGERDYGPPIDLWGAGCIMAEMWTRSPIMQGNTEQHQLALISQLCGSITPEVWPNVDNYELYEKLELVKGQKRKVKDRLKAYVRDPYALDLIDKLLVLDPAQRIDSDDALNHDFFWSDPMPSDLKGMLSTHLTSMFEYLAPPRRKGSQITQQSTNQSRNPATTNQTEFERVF
Chain of CDK9/CyclinT1 (O60563 whole entry partner, species assumed): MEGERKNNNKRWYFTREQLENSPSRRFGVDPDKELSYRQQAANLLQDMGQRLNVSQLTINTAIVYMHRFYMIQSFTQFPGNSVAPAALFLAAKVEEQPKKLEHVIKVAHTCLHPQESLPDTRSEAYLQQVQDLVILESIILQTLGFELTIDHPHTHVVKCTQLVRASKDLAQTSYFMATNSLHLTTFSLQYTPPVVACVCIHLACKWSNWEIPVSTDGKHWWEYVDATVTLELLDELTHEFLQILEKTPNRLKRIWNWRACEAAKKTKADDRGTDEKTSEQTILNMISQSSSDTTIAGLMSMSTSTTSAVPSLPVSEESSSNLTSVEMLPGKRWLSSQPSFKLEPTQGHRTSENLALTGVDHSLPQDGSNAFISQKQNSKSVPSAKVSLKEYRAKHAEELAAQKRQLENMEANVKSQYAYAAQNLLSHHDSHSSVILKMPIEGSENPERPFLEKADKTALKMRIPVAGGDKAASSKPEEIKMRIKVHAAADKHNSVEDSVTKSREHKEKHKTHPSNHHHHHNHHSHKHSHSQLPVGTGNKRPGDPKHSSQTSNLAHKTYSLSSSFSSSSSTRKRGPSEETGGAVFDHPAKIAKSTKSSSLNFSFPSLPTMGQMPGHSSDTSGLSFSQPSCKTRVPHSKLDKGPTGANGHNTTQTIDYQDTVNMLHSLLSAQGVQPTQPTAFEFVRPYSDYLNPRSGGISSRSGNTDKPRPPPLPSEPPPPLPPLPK
Procedure: as §1, §2

A2780 cells = experiment: Cell bioactivity detection (CyQuant), A2780; type: cell-based, human; settings: ovarian carcinoma cells A2780, 72 hours
Procedure: as §3, §4

IC50 [1] [nM] | IC50 [2] [nM] | IC50 (CDK2/cyclin E1 complex) [nM] | IC50 (CDK9/CyclinT1) [nM] | IC50 (A2780 cells) [nM] | IC50 (A2780 cells; Homo sapiens, A2780, 72 h) [nM] | SMILES | IC50 (HCC70 cells) [nM] | IC50 (HCC70 cells; Homo sapiens, HCC70, 72 h) [nM]
12000 | 10.2 | 27300 | > 50000 | 177 |  | C[C@H]1COCCN1c1ccc2c(-c3nc(N[C@@H]4CNC[C@H](F)C4)ncc3C(F)(F)F)c[nH]c2n1 [Compound 74] | 199 | 
818 | 8.81 | 4330 | 2980 |  | 19 | CC1(C#N)CN(c2ccc3c(-c4nc(N[C@H]5CCCNC5)ncc4C(F)(F)F)c[nH]c3n2)C1 [Compound 21, (S)-3-methyl-1-(3-(2-(piperidine-3-amino)-5-(trifluoromethyl)pyrimidin-4-yl)-1H-pyrrolo[2,3-b]pyridin-6-yl)azetidine-3-formonitrile] |  | 27.8
6680 | 31.7 | 9300 | > 50000 | 547 |  | C[C@H]1COCCN1c1ccc2c(-c3nc(N[C@@H]4CNCC(F)(F)C4)ncc3C(F)(F)F)c[nH]c2n1 [Compound 71, N—((S)-5,5-difluoropiperidin-3-yl)-4-(6-((S)-3-methylmorpholinyl)-1H-pyrrol[2,3-b]pyridin-3-yl)-5-(trifluoromethyl)pyrimidine-2-amine] | 390 | 
1000 | 5.62 | 2150 | 2870 |  | 5.61 | FC(F)(F)c1cnc(N[C@H]2CCCNC2)nc1-c1c[nH]c2nc(C3=CCCCO3)ccc12 [Compound 109, (S)-4-(6-(3,4-dihydropyran-6-yl)-1H-pyrrol[2,3-b]pyridin-3-yl)-N-(piperidin-3-yl)-5-(trifluoromethyl)pyrimidine-2-amine] |  | 3.98
1950 | 27.8 | 6450 | 4230 |  | 41.2 | FC(F)(F)c1cnc(N[C@H]2CCCNC2)nc1-c1c[nH]c2nc(N3CC4(CCOC4)C3)ccc12 [Compound 11, (S)-4-(6-(6-oxa-2-azaspiro[3.4]octan-2-yl)-1H-pyrrolo[2,3-b]pyridin-3-yl)-N-(piperidin-3-yl)-5-(trifluoromethyl)pyrimidine-2-amine] |  | 48
277 | 6.5 | 1040 | 402 |  | 7.9 | O=S1(=O)CCN(c2ccc3c(-c4nc(N[C@H]5CCCNC5)ncc4C(F)(F)F)c[nH]c3n2)CC1 [Compound 25, (S)-4-(3-(2-(piperidine-3-amino)-5-(trifluoromethyl)pyrimidin-4-yl)-1H-pyrrolo[2,3-b]pyridin-6-yl)thiomorpholine-1,1-dioxide] |  | 11
418 | 2.17 | 1120 | 1500 |  | 5.1 | FC(F)(F)c1cnc(N[C@H]2CCCNC2)nc1-c1c[nH]c2nc(C3=CCOCC3)ccc12 [Compound 27, (S)-4-(6-(3,6-dihydro-2H-pyran-4-yl)-1H-pyrrolo[2,3-b]pyridin-3-yl)-N-(piperidin-3-yl)-5-(trifluoromethyl)pyrimidine-2-amine] |  | 30
783 | 13.1 | 4310 | 2610 |  | 8.8 | CC1(O)CCN(c2ccc3c(-c4nc(N[C@H]5CCCNC5)ncc4C(F)(F)F)c[nH]c3n2)CC1 [Compound 23, (S)-4-methyl-1-(3-(2-(piperidine-3-amino)-5-(trifluoromethyl)pyrimidin-4-yl)-1H-pyrrolo[2,3-b]pyridin-6-yl)piperidin-4-ol] |  | 19.9
1460 | 13.4 | 3020 | 1180 |  | 14 | FC(F)(F)c1cnc(N[C@H]2CCCNC2)nc1-c1c[nH]c2nc(N3CCOCC3)ccc12 [Compound 1, (S)-4-(6-morpholinyl-1H-pyrrolo[2,3-b]pyridin-3-yl)-N-(piperidin-3-yl)-5-(trifluoromethyl)pyrimidine-2-amine] |  | 14
1840 | 10.4 | 4380 | 1040 |  | 22 | CC1(O)CCN(c2ccc3c(-c4nc(N[C@H]5CCCNC5)ncc4C(F)(F)F)c[nH]c3n2)C1 (stereo partly drawn) [Compound 6, 3-methyl-1-(3-(2-(((S)-piperidin-3-yl)amino)-5-(trifluoromethyl)pyrimidin-4-yl)-1H-pyrrolo[2,3-b]pyridin-6-yl)pyrrolidin-3-ol] |  | 6.7
517 | 8.13 | 968 | 1480 |  | 4.1 | FC(F)(F)c1cnc(N[C@H]2CCCNC2)nc1-c1c[nH]c2nc(C34CCOCC3C4)ccc12 (stereo partly drawn) [Compound 31, 4-(6-(3-oxabicyclo[4.1.0]heptan-6-yl)-1H-pyrrolo[2,3-b]pyridin-3-yl)-N—((S)-piperidin-3-yl)-5-(trifluoromethyl)pyrimidine-2-amine formate] |  | 5.8
3430 | 19.9 | 3630 | 6520 |  | 6.3 | FC(F)(F)c1cnc(N[C@H]2CCCNC2)nc1-c1c[nH]c2nc(N3CC4CCC3CO4)ccc12 (stereo partly drawn) [Compound 32, 4-(6-(2-oxo-5-azabicyclo[2.2.2]octan-5-yl)-1H-pyrrol[2,3-b]pyridin-3-yl)-N—((S)-piperidin-3-yl)-5-(trifluoromethyl)pyrimidine-2-amine] |  | 24

SMILES | IC50 [1] [nM] | IC50 [2] [nM] | IC50 (CDK2/cyclin E1 complex) [nM] | IC50 (CDK9/CyclinT1) [nM] | IC50 (A2780 cells) [nM] | IC50 (A2780 cells; Homo sapiens, A2780, 72 h) [nM] | IC50 (HCC70 cells) [nM] | IC50 (HCC70 cells; Homo sapiens, HCC70, 72 h) [nM]
FC(F)(F)c1cnc(N[C@H]2CCCNC2)nc1-c1c[nH]c2nc(N3C4COCC3C4)ccc12 [Compound 103, 4-(6-(3-oxo-6-azabicyclo[3.1.1]heptan-6-yl)-1H-pyrrol[2,3-b]pyridin-3-yl)-N—((S)-piperidin-3-yl)-5-(trifluoromethyl)pyrimidine-2-amine formate] | 1390 | 7.26 | 2830 | 3680 |  | 18.2 |  | 22.3
